Source: patent US12351580B2, “NLRP3 modulators” (Innate Tumor Immunity, Inc., priority 2017, dated 2025)

Target: T1, hNLRP3 (Homo sapiens, UniProt Q96P20)
T1 construct: THP-1 cells were purchased from the American Type Culture Collection; host or cells: THP-1 cells, PMA-differentiated
Assay: Measurement of IL-1β production in PMA-differentiated THP-1 cells (hNLRP3 agonist; ELISA, alternative and hTRF procedures)
Format: cell-based
Method: Measurement of IL-1β production in PMA-differentiated THP-1 cells THP-1 cells were purchased from the American Type Culture Collection and sub-cultured according to instructions from the supplier. Prior to experiments, cells were cultured in RPMI 1640 containing 10% heat inactivated FBS, penicillin (100 units/ml) and streptomycin (100 μg/ml), and maintained in log phase prior to experimental setup. Prior to the experiment THP-1 were treated with PMA (Phorbol 12-myristate 13-acetate) ([…]) for 24 hours. The day of the experiment the media was removed and attaching cells were treated with trypsin for 2 minutes, cells were then collected, washed with PBS (phosphate buffer saline), spin down, resuspended in 2% heat inactivated FBS with RPMI at a concentration of 1×10^6 cells/ml, and 100 μl was plated in a 96 well plate. Compounds were dissolved in dimethyl sulfoxide (DMSO) and added to the culture medium to achieve desired concentration (e.g. 100, 30, 10, 3, 1, 0.3 or 0.1 μM). Cells were incubated with compounds for 4 hours. Cell free supernatant was collected and the production of […] was evaluated by ELISA. A vehicle only control was run concurrently with each experiment. Final DMSO concentration was 1%.
Measurement of IL-1β Production in PMA-Differentiated THP-1 Cells (Alternative Procedure)
THP-1 cells were purchased from the American Type Culture Collection and sub-cultured according to instructions from the supplier. Prior to experiments, cells were cultured in RPMI 1640 containing 10% heat inactivated FBS, penicillin (100 units/ml), streptomycin (100 μg/ml), HEPES (10 mM) and sodium pyruvate (1 mM) and maintained in log phase prior to experimental setup. Prior to the experiment, THP-1 cells were treated with PMA (Phorbol 12-myristate 13-acetate) (20 μg/ml) overnight. The day of the experiment, the media was removed and attached cells were treated with trypsin for 2 minutes, cells were then collected, washed with PBS (phosphate buffer saline), pelleted by centrifugation and resuspended in 2% heat inactivated FBS with RPMI at a concentration of 50,000 cells/well in a 384 well plate. Cell free supernatant was collected and the production of IL-1β was evaluated by ELISA. Compounds were dissolved in dimethyl sulfoxide (DMSO) and added to the culture medium to achieve desired concentration (e.g. 100, 30, 10, 3, 1, 0.3 or 0.1 μM). Cells were incubated with compounds for 2 hours. A vehicle only control was run concurrently with each experiment. Final DMSO concentration was 1%.
Measurement of IL-1β Production—hTRF Protocol (Second Alternative Procedure)
Serial dilutions of compounds in DMSO were added to low volume 384 well plates at 100 nl/well using an ECHO 550 acoustic dispenser (Labcyte) to achieve final starting concentration of 10 μM in assay.
THP-1 cells in RPMI (Gibco, 11875) media with 10% FBS at a density of 1×10^6 cell/ml in a T175 flask were treated with a final concentration of phorbol 12-myristate 13-acetate (PMA) (Sigma, P1585) of 50 ng/ml overnight at 37° C. at 5% CO2 for differentiation. Cells were harvested the next day after rinsing well with dPBS using 0.5% trypsin. A cell solution was prepared of 1×10^6 cells/ml for 50,000 cells in 50 μl/well in RPMI media with 2% FBS. Cells were plated using a multichannel pipette onto the compound dilutions in Greiner, 384 well, black clear bottom tissue culture treated plates (781090). The plates were incubated in 37° C. incubator at 5% CO2 for 2 hours.
After the 2 hour incubation, the cell plates were spun in the centrifuge for 5 minutes at 1200 rpm. Using the Felix (CyBio), 8 μl of the supernatant was transferred to 384 well, low volume, white proxy plates. (Perkin Elmer, 6008230). A human IL1beta hTRF kit was used to analyze the supernatant (CISBIO, 62HIL1BPEG). The kit instructions were followed for preparing the IL1Beta standard curve and then the antibodies from the kit were diluted 1:40 rather than 1:20 as kit instructed.

T1 sequence (Q96P20 whole entry): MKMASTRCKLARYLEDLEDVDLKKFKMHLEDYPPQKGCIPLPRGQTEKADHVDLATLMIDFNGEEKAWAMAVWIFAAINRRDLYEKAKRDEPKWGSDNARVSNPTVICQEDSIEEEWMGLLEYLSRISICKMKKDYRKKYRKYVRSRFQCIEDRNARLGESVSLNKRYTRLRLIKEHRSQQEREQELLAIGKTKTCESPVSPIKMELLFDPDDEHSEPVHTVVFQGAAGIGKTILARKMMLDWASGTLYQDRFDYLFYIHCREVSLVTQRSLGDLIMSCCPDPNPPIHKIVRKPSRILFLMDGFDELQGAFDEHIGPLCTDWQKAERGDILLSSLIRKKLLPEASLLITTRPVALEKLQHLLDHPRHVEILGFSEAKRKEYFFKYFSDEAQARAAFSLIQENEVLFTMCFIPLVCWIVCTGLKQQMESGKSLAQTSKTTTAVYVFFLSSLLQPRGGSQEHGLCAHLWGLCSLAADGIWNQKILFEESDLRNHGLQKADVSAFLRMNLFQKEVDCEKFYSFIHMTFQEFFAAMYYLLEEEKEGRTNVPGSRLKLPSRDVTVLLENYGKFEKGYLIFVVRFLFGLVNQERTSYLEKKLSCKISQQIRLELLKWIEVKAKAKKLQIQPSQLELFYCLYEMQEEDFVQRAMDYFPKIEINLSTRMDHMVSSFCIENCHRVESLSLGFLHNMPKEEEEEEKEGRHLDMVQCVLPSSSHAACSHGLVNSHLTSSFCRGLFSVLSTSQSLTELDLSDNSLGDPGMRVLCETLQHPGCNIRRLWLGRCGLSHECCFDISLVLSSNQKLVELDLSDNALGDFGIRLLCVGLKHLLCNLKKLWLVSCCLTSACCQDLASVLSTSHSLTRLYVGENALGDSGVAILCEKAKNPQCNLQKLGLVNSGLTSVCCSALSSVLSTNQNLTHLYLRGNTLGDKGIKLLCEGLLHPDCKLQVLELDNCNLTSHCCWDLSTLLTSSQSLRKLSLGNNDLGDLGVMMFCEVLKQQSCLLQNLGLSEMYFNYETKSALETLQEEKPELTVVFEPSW

Compound | EC50 [µM]
CCN(Cc1nc2c(N)nc3cc(-c4cc[nH]n4)ccc3c2[nH]1)C(=O)CO [Compound 133] | 3.5
CCN(Cc1nc2c(N)nc3cc(-n4nccn4)ccc3c2[nH]1)C(=O)OC(C)(C)C [Compound 135] | 4.6
Nc1nc2cc(-c3cc[nH]n3)ccc2c2[nH]c(CN3CC(c4ccccc4)CC3=O)nc12 (stereo not shown) [Compound 137] | 5.4
COc1ccc(-c2ccc3c(c2)nc(N)c2nc(CN4CCCC4=O)[nH]c23)cc1 [Compound 292, 1-[[4-amino-7-(4-methoxyphenyl)-1H-imidazo[4,5-c]quinolin-2-yl]methyl]pyrrolidin-2-one] | 4.48
COc1ccc(-c2ccc3c(c2)nc(N)c2nc(CN4CCCC4=O)[nH]c23)cn1 [Compound 304, 1-[[4-amino-7-(6-methoxypyridin-3-yl)-1H-imidazo[4,5-c]quinolin-2-yl]methyl]pyrrolidin-2-one] | 36.4
Nc1nc2cc(-c3cccnc3F)ccc2c2[nH]c(CN3CCCC3=O)nc12 [Compound 307, 1-[[4-amino-7-(2-fluoropyridin-3-yl)-1H-imidazo[4,5-c]quinolin-2-yl]methyl]pyrrolidin-2-one] | 12.3
Nc1nc2ccccc2c2c1nc(CN1CCCC1=O)n2CCCC(=O)N1CCSCC1 [Compound 345] | 64
CN1CCN(Cc2nc3c(N)nc4cc(-c5cc[nH]n5)ccc4c3[nH]2)C(=O)C1 [Compound 350] | 10
Nc1nc2cc(-c3cc[nH]n3)ccc2c2[nH]c(CN3CCOCC3=O)nc12 [Compound 351] | 2.17
Nc1nc2cc(-c3cc[nH]n3)ccc2c2[nH]c(CN3CCCCC3=O)nc12 [Compound 352] | 2.23
CN1CCN(Cc2nc3c(N)nc4cc(-c5cc[nH]n5)ccc4c3[nH]2)C(=O)C1 [Compound 432] | ~10
CC(C)(C)OC(=O)N1CCN(Cc2nc3c(N)nc4cc(-c5cccnc5)ccc4c3[nH]2)C(=O)C1 [Compound 433] | 11.5

Now those with a lower EC50, led by results:

EC50 [µM] | Compound
0.69 | Nc1nc2cc(-c3cc[nH]n3)ccc2c2[nH]c(CNC(=O)C3CC3)nc12 [Compound 105]
0.64 | CC(C)C(=O)NCc1nc2c(N)nc3cc(-c4cc[nH]n4)ccc3c2[nH]1 [Compound 107]
0.56 | CC(=O)NCc1nc2c(N)nc3cc(-c4cc[nH]n4)ccc3c2[nH]1 [Compound 113, N-((4-Amino-7-(1H-pyrazol-3-yl)-1H-imidazo[4,5-c]quinolin-2-yl)methyl)acetamide]
1.16 | CS(=O)(=O)NCc1nc2c(N)nc3cc(-c4cc[nH]n4)ccc3c2[nH]1 [Compound 116]
2.1 | CCN(Cc1nc2c(N)nc3cc(-c4cc[nH]n4)ccc3c2[nH]1)C(=O)c1ccccc1 [Compound 126]
1.06 | Nc1nc2cc(-c3ccsc3)ccc2c2[nH]c(CN3CCCC3=O)nc12 [Compound 308, 1-[(4-amino-7-thiophen-3-yl-1H-imidazo[4,5-c]quinolin-2-yl)methyl]pyrrolidin-2-one]
0.24 | CC(C)NCc1nc2c(N)nc3cc(-c4cc[nH]n4)ccc3c2[nH]1 [Compound 421]
